24 compounds from patent publication US7109193B2, “Tricyclic diazepines tocolytic oxytocin receptor antagonists” (Wyeth, priority 2001, dated 2006) can be followed below.

The target of this assay is T1, human vasopressin V1a receptor subtype (Homo sapiens, UniProt P37288).
T1 construct: host or cells: CHO cells (pZeoSV vector for the Thibonnier line)
Description: Vasopressin binding in Chinese Hamster Ovary cell membranes expressing human vasopressin V1a subtype receptors. The following applies: 100 nM, CHO cell membranes, [3H]Manning ligand, values without parentheses. The gist of the method:
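Membranes from CHO cells expressing human V1a receptor were incubated with [3H]Manning ligand (added as 20 μL of 8 nM) in pH 7.4 Tris buffer with MgCl2, BSA and protease inhibitors, 60 min at room temperature. Bound radioactivity was counted after filtration; values are percent inhibition at a stated concentration or IC50.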

T1 sequence (P37288 whole entry): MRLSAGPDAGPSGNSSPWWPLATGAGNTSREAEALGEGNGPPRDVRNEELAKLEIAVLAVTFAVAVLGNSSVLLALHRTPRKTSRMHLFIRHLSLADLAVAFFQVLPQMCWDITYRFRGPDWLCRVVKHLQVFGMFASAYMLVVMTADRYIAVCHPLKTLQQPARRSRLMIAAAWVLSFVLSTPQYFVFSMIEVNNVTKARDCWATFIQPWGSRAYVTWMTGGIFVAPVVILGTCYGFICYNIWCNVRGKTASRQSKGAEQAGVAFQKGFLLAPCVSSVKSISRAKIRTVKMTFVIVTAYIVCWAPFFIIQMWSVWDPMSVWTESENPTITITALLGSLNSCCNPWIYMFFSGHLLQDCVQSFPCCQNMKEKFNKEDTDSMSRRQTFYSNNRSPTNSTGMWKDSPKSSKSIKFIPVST

Consider `Cc1cccc(N2CCN(C(=O)c3ccc4n3Cc3ccccc3N(C(=O)c3ccc(-c5ccccc5C(F)(F)F)c(C)c3)C4)CC2C)c1` (stereo not drawn) [Example 5, [3-Methyl-4-(3-methyl-phenyl)-piperazin-1-yl]-[10-(2-methyl-2′-trifluoromethyl-[1,1′-biphenyl]-4-yl)carbonyl]-10,11-dihydro-5H-pyrrolo[2,1-c][1,4]benzodiazepin-3-yl-methanone], for which the “V1a % inhibition @ 100 nM” value was −6%. Regarding `Cc1ccccc1-c1ccc(C(=O)N2Cc3ccc(C(=O)NCCN4CCCCC4)n3Cc3ccccc32)cc1C` [Example 150, 10-[(2,2′-Dimethyl[1,1′-biphenyl]-4-yl)carbonyl]-N-[2-(1-piperidinyl)ethyl]-10,11-dihydro-5H-pyrrolo[2,1-c][1,4]benzodiazepine-3-carboxamide], the inhibition – broadly, how much of the control response was suppressed – at 0.1 µM is 42%.

With `COc1cc(C(=O)N2Cc3ccc(C(=O)N4CCC(N5CCCCC5)CC4)n3Cc3ccccc32)ccc1-c1ccccc1C` [Example 116, {10-[(2-Methoxy-2′-methyl[1,1′-biphenyl]-4-yl)carbonyl]-10,11-dihydro-5H-pyrrolo[2,1-c][1,4]benzodiazepin-3-yl}[4-(1-piperidinyl)-1-piperidinyl]methanone], the inhibition at 0.1 µM was found to be 42%.

As for `Cc1cc(C(=O)N2Cc3ccc(C(=O)NCCCN(C)C)n3Cc3ccccc32)ccc1-c1ccccc1C(F)(F)F` [Example 84, N-[3-(Dimethylamino)propyl]-10-{[2-methyl-2′-(trifluoromethyl)[1,1′-biphenyl]-4-yl]carbonyl}-10,11-dihydro-5H-pyrrolo[2,1-c][1 .4]benzodiazepine-3-carboxamide], the “V1a % inhibition @ 100 nM” value was 1%. In the case of `COc1cccc(-c2cc(OC)c(C(=O)N3Cc4ccc(C(=O)N5CCN(CCN6CCOCC6)CC5)n4Cc4ccccc43)cc2Cl)c1` [Example 212, {10-[(6-Chloro-3,3′-dimethoxy[1,1′-biphenyl]-4-yl)carbonyl]-10,11-dihydro-5H-pyrrolo[2,1-c][1,4]benzodiazepin-3-yl}{4-[2-(4-morpholinyl)ethyl]-1-piperazinyi}methanone], the “V1a % inhibition @ 100 nM” value was 35%. With `COc1cc(C(=O)N2Cc3ccc(C(=O)NCCCn4ccnc4)n3Cc3ccccc32)ccc1-c1cccc2ccccc12` [Example 131, N-[3-(1H-Imidazol-1-yl)propyl]-10-[3-methoxy-4-(1-naphthyl)benzoyl]-10,11-dihydro-5H-pyrrolo[2,1-c][1,4]benzodiazepine-3-carboxamide], the inhibition at 0.1 µM stood at 8%.

As to `COc1ccccc1-c1ccc(C(=O)N2Cc3ccc(C(=O)NCCN4CCCCC4)n3Cc3ccccc32)cc1C` [Example 149, 10-[(2′-Methoxy-2-methyl[1,1′-biphenyl]-4-yl)carbonyl]-N-[2-(1-piperidinyl)ethyl]-10,11-dihydro-5H-pyrrolo[2,1-c][1,4]benzodiazepine-3-carboxamide], the inhibition at 0.1 µM was 17%.

On to `COc1cc(C(=O)N2Cc3ccc(C(=O)N4CCC(N5CCCC5)CC4)n3Cc3ccccc32)ccc1-c1ccccc1C` [Example 142, {10-[(2-Methoxy-2′-methyl[1,1′-biphenyl]-4-yl)carbonyl]-10,11-dihydro-5H-pyrrolo[2,1-c][1,4]benzodiazepin-3-yl}[4-(1-pyrrolidinyl)-1-piperidinyl]methanone], for which the inhibition at 0.1 µM was found to be 46%. Same read-out and setting: the same measure for `COc1ccccc1-c1ccc(C(=O)N2Cc3ccc(C(=O)N4CCC(N5CCCC5)CC4)n3Cc3ccccc32)cc1` [Example 140, {10-[(2′-Methoxy[1,1′-biphenyl]-4-yl)carbonyl]-10,11-dihydro-5H-pyrrolo[2,1-c][1,4]benzodiazepin-3-yl}[4-(1-pyrrolidinyl)-1-piperidinyl]methanone]: 24%; for `CN(C)CCCN(C)C(=O)c1ccc2n1Cc1ccccc1N(C(=O)c1ccc(-c3cccc4ccccc34)cc1Cl)C2` [Example 109, 10-[2-Chloro-4-(1-naphthyl)benzoyl]-N-[3-(dimethylamino)propyl]-N-methyl-10,11-dihydro-5H-pyrrolo[2,1-c][1,4]benzodiazepine-3-carboxamide]: 9%. Still for that read-out and setting: the same measure for `Cc1cc(C(=O)N2Cc3ccc(C(=O)N4CCC(N5CCCCC5)CC4)n3Cc3ccccc32)ccc1-c1ccccc1C(F)(F)F` [Example 122, {10-[(2-Methyl-2′-(trifluoromethyl) -[1,1′-biphenyl]-4-yl)carbonyl]-10,11-dihydro-5H -pyrrolo[2,1-c][1,4]benzodiazepin-3-yl}[4-(1-piperidinyl)-1-piperidinyl]methanone]: 8%.

Regarding `COc1ccccc1-c1ccc(C(=O)N2Cc3ccc(C(=O)N(C)CCCN(C)C)n3Cc3ccccc32)cc1OC` [Example 107, 10-[(2,2′-Dimethoxy[1,1′-biphenyl]-4-yl)carbonyl]-N-[3-(dimethylamino)propyl]-N-methyl-10,11-dihydro-5H-pyrrolo[2,1-c][1,4]benzodiazepine-3-carboxamide], the inhibition at 0.1 µM was 15%. For `COc1ccccc1-c1ccc(C(=O)N2Cc3ccc(C(=O)N4CCC[C@H]4CN4CCCC4)n3Cc3ccccc32)cc1` [Example 265, {10-[(2′-Methoxy[1,1′-biphenyl]-4-yl)carbonyl]-10,11-dihydro-5H-pyrrolo[2,1-c][1,4]benzodiazepin-3-yl}[(2S)-2-(1-pyrrolidinylmethyl)pyrrolidinyl]methanone], the “V1a % inhibition @ 100 nM” value worked out at 31%.

With `COc1cc(C(=O)N2Cc3ccc(C(=O)N4CCC[C@H]4CN4CCCC4)n3Cc3ccccc32)ccc1-c1cccc2ccccc12` [Example 262, {10-[3-Methoxy-4-(1-naphthyl)benzoyl]-10,11-dihydro-5H-pyrrolo[2,1-c][1,4]benzodiazepin-3-yl}[(2S)-2-(1-pyrrolidinylmethyl)pyrrolidinyl]methanone], the “V1a % inhibition @ 100 nM” value was determined as 8%.

Turning to `COc1cc(-c2ccccc2C)c(Cl)cc1C(=O)N1Cc2ccc(C(=O)NCCCn3ccnc3)n2Cc2ccccc21` [Example 129, 10-[(6-Chloro-3-methoxy-2′-methyl[1,1′-biphenyl]-4-yl)carbonyl]-N-[3-(1H-imidazol-1-yl)propyl]-10,11-dihydro-5H-pyrrolo[2,1-c][1,4]benzodiazepine-3-carboxamide], the inhibition at 0.1 µM was 6%.

On to `Cc1ccccc1-c1ccc(C(=O)N2Cc3ccc(C(=O)NCCCn4ccnc4)n3Cc3ccccc32)cc1` [Example 127, N-[3-(1H-Imidazol-1-yl)propyl]-10-[(2′-methyl[1,1′-biphenyl]-4-yl)carbonyl]-10,11-dihydro-5H-pyrrolo[2,1-c][1,4]benzodiazepine-3-carboxamide], for which the inhibition at 0.1 µM stood at 16%. Consider `COc1cc(C(=O)N2Cc3ccc(C(=O)N4CCC[C@H]4CN4CCCC4)n3Cc3ccccc32)ccc1-c1ccccc1Cl` [Example 33, {[10-(2-Methoxy)-2′-chloro-[1,1′-biphenyl]-4-yl]carbonyl}-[(2S)-[(2-pyrrolidin-1-yl)methyl]pyrrolidin-1-yl]-10,11-dihydro-5H-pyrrolo[2,1-c][1,4]benzodiazepin-3-yl-methanone], for which the “V1a % inhibition @ 100 nM” value was 68%.

With `Cc1ccccc1-c1ccc(C(=O)N2Cc3ccc(C(=O)N4CC[C@@H](N(C)C)C4)n3Cc3ccccc32)cc1C` [Example 274, [(3R)-3-(Dimethylamino)pyrrolidinyl]{10-[(2,2′-dimethyl[1,1′-biphenyl]-4-yl)carbonyl]-10,11-dihydro-5H-pyrrolo[2,1-c][1,4]benzodiazepin-3-yl}methanone], the “V1a % inhibition @ 100 nM” value is listed as 90%. In the case of `CN(C)[C@@H]1CCN(C(=O)c2ccc3n2Cc2ccccc2N(C(=O)c2ccc(-c4cccc5ccccc45)cc2Cl)C3)C1` [Example 277, {10-[2-Chloro-4-(1-naphthyl)benzoyl]-10,11-dihydro-5H-pyrrolo[2,1-c][1,4]benzodiazepin-3-yl}[(3R)-3-(dimethylamino)pyrrolidinyl]methanone], the “V1a % inhibition @ 100 nM” value amounted to 8%. Take `Cc1ccccc1-c1ccc(C(=O)N2Cc3ccc(C(=O)N4CCC[C@H]4CN4CCCC4)n3Cc3ccccc32)cc1C` [Example 260, {10-[(2,2′-Dimethyl[1,1′-biphenyl]-4-yl)carbonyl]-10,11-dihydro-5H-pyrrolo[2,1-c][1,4]benzodiazepin-3-yl}[(2S)-2-(1-pyrrolidinylmethyl)pyrrolidinyl]methanone]: the “V1a % inhibition @ 100 nM” value is on record as 55%. Same read-out and setting: then `COc1cc(C(=O)N2Cc3ccc(C(=O)N4CCC[C@H]4CN4CCCC4)n3Cc3ccccc32)ccc1-c1ccccc1C` [Example 266, {10-[(2-Methoxy-2′-methyl[1,1′-biphenyl]-4-yl)carbonyl]-10,11-dihydro-5H-pyrrolo[2,1-c][1,4]benzodiazepin-3-yl}[(2S)-2-(1-pyrrolidinylmethyl)pyrrolidinyl]methanone], with 49%; and `COc1cc(C(=O)N2Cc3ccc(C(=O)N4CC[C@@H](N(C)C)C4)n3Cc3ccccc32)ccc1-c1ccccc1C` [Example 281, [(3R)-3-(Dimethylamino)pyrrolidinyl]{10-[(2-methoxy-2′-methyl[1,1′-biphenyl]-4-yl)carbonyl]-10,11-dihydro-5H-pyrrolo[2,1-c][1,4]benzodiazepin-3-yl}methanone], with 58%.

As for `COc1cccc(-c2ccc(C(=O)N3Cc4ccc(C(=O)NCCN5CCCCC5)n4Cc4ccccc43)cc2C)c1` [Example 151, 10-[(3′-Methoxy-2-methyl[1,1′-biphenyl]-4-yl)carbonyl]-N-[2-(1-piperidinyl)ethyl]-10,11-dihydro-5H-pyrrolo[2,1-c][1,4]benzodiazepine-3-carboxamide], the inhibition at 0.1 µM came to 17%.

Regarding `Cc1ccccc1-c1ccc(C(=O)N2Cc3ccc(C(=O)NCCCn4ccnc4)n3Cc3ccccc32)cc1C` [Example 124, 10-[(2,2′-Dimethyl[1,1′-biphenyl]-4-yl)carbonyl]-N-[3-(1H-imidazol-1-yl)propyl]-10,11-dihydro-5H-pyrrolo[2,1-c][1,4]benzodiazepine-3-carboxamide], the inhibition at 0.1 µM stood at 16%.
